Assay results reported in patent publication US11400063B2, “Early administration of low-dose colchicine after myocardial infarction” (INSTITUT DE CARDIOLOGIE DE MONTREAL, priority 2019, dated 2022).

Experiments:
[1] = COLCOT biomarkers of inflammation; format: in vivo, human; details: baseline to 12 months
Text: (§1) Additional prespecified exploratory end points included the change from baseline to 6 months in the high-sensitivity C-reactive protein level and the change from baseline to 12 months in the white-cell count. The C-reactive protein biomarker substudy was implemented after a protocol amendment and was optional for sites and for patients; 34 sites chose to participate in this substudy.
(§2) The analysis of the primary end point was repeated in the per-protocol population (i.e., patients without major protocol deviations). Secondary and exploratory end points expressed as time to event were analyzed similarly. The changes from baseline to follow-up were analyzed with the use of an analysis of covariance model with adjustment for baseline value, and estimates of treatment effect are presented with 95% confidence intervals.
(§3) High-sensitivity C-reactive protein was measured in a subgroup of only 207 patients at the time of randomization and 6 months later, and the median concentration at trial entry was 4.28 mg per liter. […] The adjusted geometric mean percent changes in the high-sensitivity C-reactive protein level at 6 months after myocardial infarction were −70.0% in the colchicine group and −66.6% in the placebo group, and the placebo-adjusted geometric mean percent change was −10.1% percentage points in the colchicine group (95% CI, −28.6 to 13.4) (Table 17).
(§4) In Table 17, the placebo-adjusted geometric mean percent change was obtained by exponentiating the adjusted mean difference between groups from the analysis of covariance model (based on log-transformed data), then subtracting 1 and multiplying by 100.
(§5) In addition, the C-reactive protein biomarker sub-study was implemented following a protocol amendment and was optional for sites and for patients; 34 sites accepted to participate in this substudy. There were 213 and 208 patients who provided blood samples at baseline and 6 months, respectively. Paired baseline and 6-month hs-CRP values were available in 207 patients. Clinically available white blood cell counts were obtained from 2598 patients at baseline and 1998 patients at 12 months, and paired baseline and 12-month values were available in 1972 patients. Statistical analysis was conducted on the patients who provided both baseline and follow-up data and as these were exploratory analyses, no missing data was imputed.

[2] = tested on: high-sensitivity C-reactive protein level and white-cell count; assay: COLCOT biomarkers of inflammation; format: in vivo, human; details: for Hs-C reactive protein, geometric mean: N = 99; for Total white blood cell count, geometric mean: N = 992
Text: as §1, §2, §3, §4, §5

[3] = baseline to 12 months, listed as colchicine

With `COc1cc2c(c(OC)c1OC)-c1ccc(OC)c(=O)cc1[C@@H](NC(C)=O)CC2` [Colchicine, colchicine] the “Circulating lymphocytes, Adjusted GM percent change” value [1] was 1.80%, the “Hs-C reactive protein, geometric mean” value ([2]; 6 months) was 1.37 mg/L and the “Circulating lymphocytes, geometric mean” value ([2]; 12 months) was 1.83 10^3/μL. The “Circulating neutrophils, geometric mean” value ([2]; 12 months) was 3.95 10^3/μL, the “Total white blood cell count, geometric mean” value ([2]; 12 months) was 6.95 10^3/μL and the “Circulating lymphocytes, geometric mean” value ([2]; Randomization) was 1.79 10^3/μL. For the same compound, the “Circulating neutrophils, geometric mean” value ([2]; Randomization) was 5.45 10^3/μL, the “Hs-C reactive protein, geometric mean” value ([2]; Randomization) was 4.27 mg/L and the “Total white blood cell count, geometric mean” value ([2]; Randomization) was 8.54 10^3/μL. The “Hs-C reactive protein, Adjusted GM percent change” value ([2]; baseline to 6 months) was −70.0%, the “Hs-C reactive protein, Placebo-adjusted GM percent change” value ([2]; baseline to 6 months) was −10.1% and the “Circulating lymphocytes, Placebo-adjusted GM percent change” value ([2]; baseline to 12 months) was 1.10%. For the same compound, the “Circulating neutrophils, Adjusted GM percent change” value ([2]; baseline to 12 months) was −27.63%, the “Circulating neutrophils, Placebo-adjusted GM percent change” value ([2]; baseline to 12 months) was 0.45% and the “Total white blood cell count, Adjusted GM percent change” value ([2]; baseline to 12 months) was −18.81%. The “Total white blood cell count, Placebo-adjusted GM percent change” value ([2]; baseline to 12 months) was 0.26%, the “Total white blood cell count, Adjusted GM percent change” value [2, 3] was −18.8% and the “Total white blood cell count, Placebo-adjusted GM percent change” value [2, 3] was 0.3%. For the same compound, the “reduction in the C-reactive protein level” value ([2]; over the first 6 months after myocardial infarction, both trial groups) was greater than 65%.
